Series [1] is classed as binding. How it is done:
(§1) Calcium and magnesium affinities of EGTA at high ionic strength were measured by titrating 125 micromole portions of EGTA (Fluka Chemical, puriss grade) with 1.00M KOH (J.T. Baker, low in carbonate). The EGTA was dissolved in 25 ml medium containing 225 mM KCl, 25 mM NaCl, and in some runs 10 mM CaCl2 or 21 mM MgCl2. This solution was stirred in a Radiometer TTA80 Titrator, bubbled continuously with nitrogen, and thermostatted at 18° C. while KOH was added in 0.005 or 0.01 ml aliquots from a ABU80autoburet. The pH was measured with a PHM84 meter, a G2040C electrode and an Ag/AgCl reference electrode connected to the titration solution by a long length of 0.01 inch catheter tubing filled with 3M KCl; this electrode chain was calibrated with phthalate (4.001), phosphate (6.889), and borax (9.245) buffers made according to National Bureau of Standards recipes. The fifty to eighty pH readings in each titration were analyzed by the FORTRAN program SCOGS of Sayce (see reference 36). The resulting proton ionization constants for EGTA were 9.537 and 8.961 with computed uncertainties of ±0.012 and ±0.008 respectively. […] At this ionic strength and any pH>4, the effective stability constant K'Ca may be calculated as (antilog 10.77)·[1 +antilog (3.51-pH)]/[1+antilog (9.537-pH)+antilog (9.537+8.961-2·pH)]in units of liters/mole. […]

The format of series [2] is binding. How it is done: as §1
This is another data set of the same source.

The conditions of series [3]: cited from earlier work.
For series [4] the following is noted: reference 11; cited from earlier work.
For series [5] the following is noted: reference 11; cited from earlier work. This is another data set of the same source.
The conditions of series [6]: calculated from tables of Martell & Smith, read-out: apparent dissociation constant for Ca-EGTA, cited from earlier work.
For series [7] the following is noted: read-out: apparent dissociation constant for Mg-EGTA, cited from earlier work.

Like-named read-outs stand apart in the source and are kept apart here.

Take `O=C(O)CN(CCOCCOCCN(CC(=O)O)CC(=O)O)CC(=O)O` [EGTA, ethylene glycol bis(beta-aminoethyl ether)-N,N,N',N'-tetracetic acid]: the “proton pKa for Ca.EGTA” value in series [1] (225 mm kcl, 25 mm nacl) is on record as 3.51±0.49. The Kd is 0.49 µM in series [1] (pH 7.02 in 225 mM KCl, 25 mM NaCl at 18° C., freshly determined, read-out: apparent dissociation constant for Ca-EGTA); 99000 µM in series [2] (pH 7.02 in 225 mM KCl, 25 mM NaCl at 18°, freshly determined, read-out: apparent dissociation constant for Mg-EGTA); 0.00427 µM in series [3] (pH 7.11, reference 11, read-out: effective dissociation constant of EGTA for Zn^2+); 0.38 µM in series [6] (pH 7.00 in 0.1M KCl, 20° C.); 0.214 µM in series [6] (pH 7.05 in 130 mM KCl, 20 mM NaCl at 37° C.); 0.151 µM in series [6] (pH 7.20 in 0.1M KCl, 20° C.). The Kd was 8960 µM in series [7] (pH 7.05 in 130 mM KCl, 20 mM NaCl at 37°) and 21000 µM in series [7] (pH 7.18 in 130 mM KCl at 20°). In addition, in series [2] (225 mm kcl, 25 mm nacl), the “proton pKa for Mg.EGTA” value came to 7.885±0.05. For the same compound, in series [3] (reference 11), the “preference for Zn^2+ over Ca^2+” value is recorded as “ca. 50 fold”. Also, the “preference for Mn^2+ over Ca^2+” value in series [4] is on record as “ca. 20 fold”. Also, in series [5], the “preference for Fe^2+ over Ca^2+” value is on record as “ca. 8 fold”.

The values above are taken from patent US4603209A, “Fluorescent indicator dyes for calcium ions” (priority 1984, dated 1986).
